Laboratory results: patent publication US11174268B2, “Benzenesulfonamide compouds and their use as therapeutic agents” (Xenon Pharmaceuticals Inc., priority 2016, dated 2021)

Experiments:
NaV1.1 = NaV1.1 (Homo sapiens (Human), UniProt P35498); test: Sodium Influx Assay (Flux), NaV1.1; type: cell-based; conditions: Trex HEK293 cells, ANG2 dye, inactivated state;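 further: channels co-expressed with human β1 subunit and held open by modulators, cells exposed to compounds for one hour at room temperature, IC50 from percent inhibition of influx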
NaV1.5 = NaV1.5 (Homo sapiens (Human), UniProt Q14524); test: Sodium Influx Assay (Flux), NaV1.5; conditions: read-out: Flux NaV1.5 IC50; Trex HEK293 cells, ANG2 dye, inactivated state
NaV1.6 = NaV1.6 (Homo sapiens (Human), UniProt Q9UQD0); test: Sodium Influx Assay (Flux), NaV1.6; type: cell-based; conditions: Trex HEK293 cells, ANG2 dye, inactivated state;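 further: Tetracycline-induced cells, compounds applied for one hour at room temperature with modulators holding channels open, IC50 from percent inhibition of sodium influx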

Sequence of NaV1.5 (Q14524 other isoform, or with tags, fused parts or gaps): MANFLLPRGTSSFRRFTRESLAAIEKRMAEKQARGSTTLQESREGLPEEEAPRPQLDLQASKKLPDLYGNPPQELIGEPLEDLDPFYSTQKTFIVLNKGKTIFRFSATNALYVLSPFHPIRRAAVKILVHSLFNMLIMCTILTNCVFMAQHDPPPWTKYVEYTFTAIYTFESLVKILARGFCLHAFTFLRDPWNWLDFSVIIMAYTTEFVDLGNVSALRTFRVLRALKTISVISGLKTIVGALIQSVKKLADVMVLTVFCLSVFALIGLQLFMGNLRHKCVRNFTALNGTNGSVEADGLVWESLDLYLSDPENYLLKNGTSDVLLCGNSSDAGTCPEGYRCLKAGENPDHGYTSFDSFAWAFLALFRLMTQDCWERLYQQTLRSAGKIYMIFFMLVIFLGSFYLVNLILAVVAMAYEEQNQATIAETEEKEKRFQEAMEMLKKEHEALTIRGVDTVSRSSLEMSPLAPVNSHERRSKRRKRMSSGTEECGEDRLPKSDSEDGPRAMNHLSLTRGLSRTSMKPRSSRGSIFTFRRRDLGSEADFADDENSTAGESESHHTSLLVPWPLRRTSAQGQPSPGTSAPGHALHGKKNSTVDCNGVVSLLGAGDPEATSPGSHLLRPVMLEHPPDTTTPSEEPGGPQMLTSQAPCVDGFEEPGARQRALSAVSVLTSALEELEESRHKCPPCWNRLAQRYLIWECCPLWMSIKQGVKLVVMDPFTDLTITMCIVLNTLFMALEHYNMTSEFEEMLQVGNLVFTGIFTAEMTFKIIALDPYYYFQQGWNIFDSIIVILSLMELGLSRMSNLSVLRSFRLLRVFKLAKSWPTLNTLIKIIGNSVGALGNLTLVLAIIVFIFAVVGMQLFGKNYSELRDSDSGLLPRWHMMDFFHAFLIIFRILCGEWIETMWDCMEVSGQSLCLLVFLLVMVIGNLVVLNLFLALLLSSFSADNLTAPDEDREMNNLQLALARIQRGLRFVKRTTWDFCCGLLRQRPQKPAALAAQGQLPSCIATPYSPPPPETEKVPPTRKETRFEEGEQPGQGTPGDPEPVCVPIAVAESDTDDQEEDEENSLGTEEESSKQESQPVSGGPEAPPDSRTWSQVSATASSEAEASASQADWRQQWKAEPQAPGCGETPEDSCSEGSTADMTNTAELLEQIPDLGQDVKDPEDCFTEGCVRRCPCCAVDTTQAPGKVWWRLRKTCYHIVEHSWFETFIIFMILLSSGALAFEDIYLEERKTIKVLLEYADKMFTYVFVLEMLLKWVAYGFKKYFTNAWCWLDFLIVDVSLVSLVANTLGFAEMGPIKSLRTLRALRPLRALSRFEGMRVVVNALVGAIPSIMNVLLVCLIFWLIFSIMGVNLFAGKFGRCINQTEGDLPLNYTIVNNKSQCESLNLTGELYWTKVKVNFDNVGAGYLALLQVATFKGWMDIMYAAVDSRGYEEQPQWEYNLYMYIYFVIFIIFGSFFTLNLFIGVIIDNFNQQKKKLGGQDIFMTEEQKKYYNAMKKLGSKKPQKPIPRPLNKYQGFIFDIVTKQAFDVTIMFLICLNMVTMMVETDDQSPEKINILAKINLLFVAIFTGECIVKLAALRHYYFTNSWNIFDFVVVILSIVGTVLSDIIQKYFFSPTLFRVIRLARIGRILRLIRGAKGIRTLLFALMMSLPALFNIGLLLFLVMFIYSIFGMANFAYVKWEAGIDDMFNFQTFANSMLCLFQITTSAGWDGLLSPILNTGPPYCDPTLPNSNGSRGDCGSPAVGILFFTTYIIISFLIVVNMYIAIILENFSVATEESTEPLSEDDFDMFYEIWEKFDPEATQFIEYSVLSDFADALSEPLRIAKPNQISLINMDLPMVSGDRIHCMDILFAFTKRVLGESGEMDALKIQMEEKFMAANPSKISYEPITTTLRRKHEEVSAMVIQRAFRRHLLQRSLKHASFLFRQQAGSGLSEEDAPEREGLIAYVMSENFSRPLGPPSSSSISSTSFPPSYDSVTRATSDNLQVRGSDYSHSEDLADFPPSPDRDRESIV

| Compound | IC50 (NaV1.1) [µM] | IC50 (NaV1.5) [µM] | IC50 (NaV1.6) [µM] |
| --- | --- | --- | --- |
| CCC(Nc1cc(F)c(S(=O)(=O)Nc2nccs2)cc1Cl)c1ccncc1 (stereo not drawn) [Example 60, 5-chloro-2-fluoro-4-((1-(pyridin-4-yl)propyl)amino)-N-(thiazol-2-yl)benzenesulfonamide] | 1.57 | 30 | 3.34 |
| O=S(=O)(Nc1nccs1)c1cc(Cl)c(N[C@H](CN2CC(F)C2)c2ccccc2)cc1F [Example 68, (S)-5-chloro-4-((2-(3-fluoroazetidin-1-yl)-1-phenylethyl)amino)-2-fluoro-N-(thiazol-2-yl)benzenesulfonamide 2,2,2-trifluoroacetate] | 5.15 | 25.3 | 1.81 |
| O=S(=O)(Nc1nccs1)c1cc(Cl)c(N[C@H](CN2CC(F)(F)C2)c2ccccc2)cc1F [Example 69, (S)-5-chloro-4-((2-(3,3-difluoroazetidin-1-yl)-1-phenylethyl)amino)-2-fluoro-N-(thiazol-2-yl)benzenesulfonamide] | 3.03 | 7.66 | 1.59 |
| O=S(=O)(Nc1nccs1)c1cc(Cl)c(N[C@@H](CN2CCCC2)c2ccccc2)cc1F [Example 71, (R)-5-chloro-2-fluoro-4-((1-phenyl-2-(pyrrolidin-1-yl)ethyl)amino)-N-(thiazol-2-yl)benzenesulfonamide] | 30 | 30 | 30 |
| O=S(=O)(Nc1nccs1)c1cc(Cl)c(N[C@H](CN2CCOCC2)c2ccccc2)cc1F [Example 75, (S)-5-chloro-2-fluoro-4-((2-morpholino-1-phenylethyl)amino)-N-(thiazol-2-yl)benzenesulfonamide 2,2,2-trifluoroacetate] | 13.6 | 21.7 | 0.261 |
| O=S(=O)(Nc1nccs1)c1ccc(N[C@H]2CCCc3cccnc32)c(Cl)c1 [Example 77, (S)-3-chloro-4-((5,6,7,8-tetrahydroquinolin-8-yl)amino)-N-(thiazol-2-yl)benzenesulfonamide] | 7.98 | 26.1 | 8.08 |
| C[C@H](Nc1ccc(S(=O)(=O)Nc2nccs2)cc1Cl)c1ccccn1 [Example 82, (S)-3-chloro-4-((1-(pyridin-2-yl)ethyl)amino)-N-(thiazol-2-yl)benzenesulfonamide] | 28.7 | 30 | 2.16 |
| CC(Nc1ccc(S(=O)(=O)Nc2nccs2)cc1Cl)c1cnn(C)c1 (stereo not drawn) [Example 83, 3-chloro-4-((1-(1-methyl-1H-pyrazol-4-yl)ethyl)amino)-N-(thiazol-2-yl)benzenesulfonamide] | 11 | 30 | 12.3 |
| C[C@H](Nc1cc(F)c(S(=O)(=O)Nc2cscn2)cc1Cl)c1ccccc1Cl [Example 92, (S)-5-chloro-4-((1-(2-chlorophenyl)ethyl)amino)-2-fluoro-N-(thiazol-4-yl)benzenesulfonamide] | 7.45 | 4.43 | 2.53 |
| O=S(=O)(Nc1nccs1)c1cc(Cl)c(NC2CCCc3ccncc32)cc1F (stereo not drawn) [Example 93, 5-chloro-2-fluoro-4-((5,6,7,8-tetrahydroisoquinolin-8-yl)amino)-N-(thiazol-2-yl)benzenesulfonamide 2,2,2-trifluoroacetate] | 0.314 | 8.47 | 0.27 |
| O=S(=O)(Nc1nccs1)c1cc(Cl)c(NC2CCCc3cnccc32)cc1F (stereo not drawn) [Example 94, 5-chloro-2-fluoro-4-((5,6,7,8-tetrahydroisoquinolin-5-yl)amino)-N-(thiazol-2-yl)benzenesulfonamide 2,2,2-trifluoroacetate] | 0.142 | 8.62 | 0.423 |
| C[C@H](Oc1cc(F)c(S(=O)(=O)Nc2nccs2)cc1Cl)c1cc(Cl)ccc1F [Example 95, (S)-5-chloro-4-(1-(5-chloro-2-fluorophenyl)ethoxy)-2-fluoro-N-(thiazol-2-yl)benzenesulfonamide] | 8.11 | 30 | 0.761 |
